How the values were obtained:
TOP1 = target: T1, TOP1 (Homo sapiens, UniProt P11387); assay: Immunoblotting assay for CPT-induced TOP1 degradation; type: cell-based; conditions: CPT 25 μM
T1 construct: endogenous in cells; host or cells: ZR-75-1 and its shRNA clones
T1 sequence (P11387 1-765): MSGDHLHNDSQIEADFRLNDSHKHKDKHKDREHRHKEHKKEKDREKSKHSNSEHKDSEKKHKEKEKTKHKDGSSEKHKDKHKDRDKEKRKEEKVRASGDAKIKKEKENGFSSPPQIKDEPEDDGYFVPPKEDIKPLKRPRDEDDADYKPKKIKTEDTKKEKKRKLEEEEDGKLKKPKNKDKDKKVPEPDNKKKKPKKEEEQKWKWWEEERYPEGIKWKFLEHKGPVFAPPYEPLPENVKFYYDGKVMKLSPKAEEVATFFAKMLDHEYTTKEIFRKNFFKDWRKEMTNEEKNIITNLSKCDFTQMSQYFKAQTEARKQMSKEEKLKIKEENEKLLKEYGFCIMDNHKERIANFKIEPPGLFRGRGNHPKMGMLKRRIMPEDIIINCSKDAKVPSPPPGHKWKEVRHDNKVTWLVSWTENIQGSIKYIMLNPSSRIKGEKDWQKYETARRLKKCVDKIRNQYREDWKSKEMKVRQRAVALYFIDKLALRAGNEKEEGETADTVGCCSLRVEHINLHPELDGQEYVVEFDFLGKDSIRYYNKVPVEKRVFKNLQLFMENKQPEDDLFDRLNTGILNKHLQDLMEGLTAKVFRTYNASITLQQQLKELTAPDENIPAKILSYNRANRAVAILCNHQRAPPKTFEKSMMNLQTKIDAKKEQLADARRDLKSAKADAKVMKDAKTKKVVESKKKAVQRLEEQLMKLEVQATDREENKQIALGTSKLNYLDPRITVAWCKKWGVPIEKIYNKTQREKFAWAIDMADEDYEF
Procedure: Band depletion assay for TOP1 cleavage complexes. Cells (106/sample) are treated with CPT (25 μM in 1% DMSO) for various times at 37° C. Cells are then lysed with 0.2 N NaOH containing 2 mM EDTA as described previously (14). Cell lysates are then neutralized with 1/10 volume of a solution containing 10% NP-40, 1 M Tris (pH 7.4), 0.1 M MgCl2, 0.1 M CaCl2, 10 mM dithiothreitol, 1 mM EGTA, and a mixture of peptide protease inhibitors (100 μg/ml each of leupeptin, pepstatin, and aprotinin), followed by the addition of another 1/10 volume of 2 N HCl. Reactions are terminated by the addition of SDS-PAGE sample buffer. Immunoblotting analysis of cell lysates is carried out using anti-Scl-70 antibody from scleroderma patients as described above.
Immunoblotting assay for CPT-induced TOP1 degradation. Cells are prepared for immunoblotting as described above with two modifications. First, cells are incubated in CPT-free medium for 30 min prior to lysis (to reverse TOP1 cleavage complexes and to de-conjugate TOP1-ubiquitin and TOP1-UBL conjugates). Second, neutralized cell lysates are incubated with Staphylococcus aureus nuclease S7 (60 U/reaction) for 20 min on ice (to release TOP1 from residual TOP1-DNA covalent complexes) prior to termination with SDS-PAGE sample buffer.
Example No. 3. […] Panel A, Reduced ISG15 expression in ZR-75-1 cells expressing ISG15 shRNA. Cell lysates of ZR-75-1 clones expressing either control shRNA (lane #1) or ISG15 shRNA (lanes #2) are analyzed by 15% SDS-PAGE. Western blotting analysis is performed using anti-ISG15 antisera (upper panel). […] Panel B, CPT sensitivity. Clonogenic survival assay is carried out as described in Materials and Methods. Colonogenic survival curves of a ZR-75-1 clone expressing control shRNA and ISG15 shRNA after CPT treatment is shown. Mean±SD values from at least two experiments are presented. Panel C, CPT-induced TOP1 down-regulation. ZR-75-1 cells stably transfected with control shRNA (lanes 1-4) or ISG15 shRNA (lanes #5-8) (10^6 cells/sample) are treated with either DMSO (lanes #1 and 5) or CPT (25 μM in 1% DMSO) (lanes #2-4 and 6-8) for various times at 37° C. Subsequently, cells are placed in fresh CPT-free media for 30 min to reverse cleavable complexes. Cell lysis and immunoblotting using anti-hTOP1 antisera are carried out as described in FIG. 1 (upper panels).
Example No. 4. […] Panel A, the reduced UbcH8 protein level in ZR-75-1 cells expressing UbcH8 shRNA. Cell lysates prepared from ZR-75-1 clones expressing either control shRNA (lane #1) or UbcH8 shRNA (lanes #2 and 3, from two independent clones), and the purified UbcH8 protein (lane #4) are analyzed by 15% SDS-PAGE. Western blotting analysis is performed using anti-UbcH8 antibody (Abeam). […] Panel B, UbcH8 shRNA decreases ISG15 conjugation in ZR-75-1 cells. Cell lysates prepared from ZR-75-1 clones expressing either control shRNA (lane #1) or UbcH8 shRNA (lanes #2 and 3, two independent clones), and the purified UbcH8 protein (lane #4) are analyzed by 15% SDS-PAGE. Western blotting analysis is performed using anti-ISG15 antibody. The non-specific bands are due to the crossreactivity of the ISG15 antibody to bovine serum albumin. Panel C, knocking down UbcH8 confers CPT resistance. ZR-75-1 clones expressing control shRNA and UbcH8 shRNA (two independent clones) are treated with CPT and cell survival is measured as described in Example 3. Panels D-F, CPT-induced TOP1 down-regulation is […] in ZR-75-1 cells expressing UbcH8 shRNA. Clonal cells of ZR-75-1 expressing control (panel D) or UbcH8 shRNA (panels E and F, representing two independent clones) (10^6/sample) are treated with either DMSO (lanes #1, 5, and 9) or CPT (25 μM in 1% DMSO) (lanes #2-4, 6-8, and 10-12) for various times at 37° C. Cells are then placed in fresh CPT-free media for 30 min to reverse cleavage complexes. Cell lysis and immunoblotting using anti-hTOP1 antibody are carried out as described in Example 1.

[1] = tested on: ZR-75-1 and BT474 breast cancer cells; assay: Cell counting assay of CPT sensitivity; type: cell-based; conditions: ZR-75-1 vs BT474 cells; one hr acute exposure
Procedure: Cell survival assays. MTT assay: Cells (3000 cells/well) are plated in 96-well microtiter plates and incubated at 37° C. in a CO2 incubator. For determination of IC50, cells are treated with varying concentrations of CPT for four days. Cells are then incubated with MTT (3-(4,5-dimethylthiazol-2-yl)-2,5-diphenyltetrazolium bromide) for 4 hrs at 37° C. The dye produced by viable cells is dissolved in DMSO and the optical density measured at 570 nm. All assays are performed at least twice in six replicate wells. Clonogenic assay: Cells (100-500 cells/plate) are plated in 6-well tissue culture plates and incubated at 37° C. in a CO2 incubator. Cells are then treated with various concentrations of CPT for 1 hr. Following CPT treatment, cells are washed free of CPT and placed in fresh medium. After 10 days, survived colonies are stained with Methylene blue and counted using the Minicount machine. Cell counting assay: Logarithmically growing cells are treated with various concentrations of CPT for 1 hr. CPT is then removed by washing the plates with CPT-free medium four times. […] Cell survival is determined by counting cells using the Coulter counter after trypsinization.
Breast cancer ZR-75-1 and BT474 cells are treated with CPT for 1 hr followed by incubation in CPT-free medium for 3 days. Cell survival is determined by cell counting using a Coulter counter as described in Materials and Methods.

SMILES: CC[C@@]1(O)C(=O)OCc2c1cc1n(c2=O)Cc2cc3ccccc3nc2-1 [CPT, camptothecin]
- TOP1 down-regulation (TOP1; MCF7/RC cells): increased
- TOP1 down-regulation (TOP1; ZR/ISG15-shRNA1 cells, 2 hrs): about 50%
- degradation of TOP1 (TOP1; ZR/UbcH8-shRNA1 cells, 2 hrs): about 50%
- degradation of TOP1 (TOP1; ZR/UbcH8-shRNA2 cells, 2 hrs): about 50%
- TOP1 down-regulation (TOP1; ZR/control-shRNA1 cells): minimal
- TOP1 down-regulation (TOP1; ZR/control-shRNA2 cells): minimal
- TOP1 down-regulation (TOP1; parental MCF7 cells): minimal
- fold greater sensitivity to CPT based on IC50 values [1]: greater than 50 fold

From patent US20100111874A1, “METHOD OF CANCER DETECTION AND TREATMENT” (University of Medicine and Dentistry of New Jresey, priority 2007, published 2010)
